Structures are written as SMILES. pEC50, pIC50: −log10 of the molar value.

System in the first data set: not listed separately
The data set is described as follows: in vitro. The conditions noted are these: human.
Molecule `CCOP(=O)(COc1c2c(c(O)c3ncccc13)C(=O)N(Cc1ccc(F)cc1)C2)OCC` [Compound 2002] came in with a CC50 of less than 5000 nM.

In the case of `CCOP(=O)(CNC(=O)CCSC1c2c(c(O)c3ncccc3c2OC)C(=O)N1Cc1ccc(F)cc1)OCC` (centres unmarked) [Compound 2021], the CC50 is less than 50000 nM.

System in a further data set: not listed separately
The data set is described as follows: Hepatocyte stability, dog. The conditions noted are these: hepatocytes.
`CCOC(=O)[C@H](C)NP(=O)(CCN(C)C(=O)c1c2c(c(O)c3ncccc13)C(=O)N(Cc1ccc(F)cc1)C2)OCC(F)(F)F` (some centres unmarked) [Compound 2009] registered a half-life of 1.22 h.

System in a further data set: not listed separately
The data set is described as follows: Cytotoxicity in MT4 cells. The note with it: human.
The molecule `CCOP(=O)(CN1CCN(C(=O)Oc2c3c(c(O)c4ncccc24)C(=O)N(Cc2ccc(F)cc2)C3)CC1)OCC` [Compound 2003] registered a CC50 of less than 5000 nM.

In turn, `COP(=O)(CCN1CCN(C(=O)Oc2c3c(c(O)c4ncccc24)C(=O)N(Cc2ccc(F)cc2)C3)CC1)OC` [Compound 2004] displayed a CC50 of less than 5000 nM.

For a further data set, the system named is HIV. The data set is described as follows: Antiviral activity in MT-2 cells. Type of data set: cell-based.
Conditions: not given
`CCOC(=O)[C@H](C)NP(=O)(CCN(C)C(=O)c1c2c(c(O)c3ncccc13)C(=O)N(Cc1ccc(F)cc1)C2)OCC(F)(F)F` (some centres unmarked) [Compound 2017]: the pEC50 is 9.00.

Molecule `CCOC(=O)[C@H](C)NP(=O)(CCN(C)C(=O)c1c2c(c(O)c3ncccc13)C(=O)N(Cc1ccc(F)cc1)C2)OCC(F)(F)F` (some centres unmarked) [Compound 2018] showed a pEC50 of 10.00.

A further data set deals with HIV. The data set is described as follows: Anti-HIV activity in MT4 cells. Type of data set: cell-based. The conditions noted are these: Human immunodeficiency virus 1.
Take `CCOP(=O)(COc1c2c(c(O)c3ncccc13)C(=O)N(Cc1ccc(F)cc1)C2)OCC` [Compound 2002]: the negative logarithm of the EC50 (pEC50) was greater than 7.70.

In turn, `CCOP(=O)(CN1CCN(C(=O)Oc2c3c(c(O)c4ncccc24)C(=O)N(Cc2ccc(F)cc2)C3)CC1)OCC` [Compound 2003] had a pEC50 greater than 7.70.

`COP(=O)(CCN1CCN(C(=O)Oc2c3c(c(O)c4ncccc24)C(=O)N(Cc2ccc(F)cc2)C3)CC1)OC` [Compound 2004]: the negative logarithm of the EC50 (pEC50) is greater than 7.70.

In the case of `CCOP(=O)(CNC(=O)CCSC1c2c(c(O)c3ncccc3c2OC)C(=O)N1Cc1ccc(F)cc1)OCC` (centres unmarked) [Compound 2021], the negative-log EC50 (pEC50) was greater than 6.30.

A further data set deals with Strand Transfer (Human immunodeficiency virus type 1 group M subtype B, UniProt P04585). The data set is described as follows: Integrase strand transfer inhibition. Type of data set: biochemical, HIV.
Conditions: not given
Molecule `CCOP(=O)(CN1CCN(C(=O)Oc2c3c(c(O)c4ncccc24)C(=O)N(Cc2ccc(F)cc2)C3)CC1)OCC` [Compound 2003] had a negative logarithm of the IC50 (pIC50) greater than 6.22.

`COP(=O)(CCN1CCN(C(=O)Oc2c3c(c(O)c4ncccc24)C(=O)N(Cc2ccc(F)cc2)C3)CC1)OC` [Compound 2004] showed a negative-log IC50 (pIC50) greater than 6.22.

The data set is the same for the next values; noted with them: read-out: IC50 Strand Transfer.
`CCOP(=O)(COc1c2c(c(O)c3ncccc13)C(=O)N(Cc1ccc(F)cc1)C2)OCC` [Compound 2002]: the negative-log IC50 (pIC50) was greater than 6.22.

For `CCOP(=O)(CNC(=O)CCSC1c2c(c(O)c3ncccc3c2OC)C(=O)N1Cc1ccc(F)cc1)OCC` (centres unmarked) [Compound 2021], the pIC50 is greater than 5.92.

System in a further data set: not listed separately
The data set is described as follows: Phosphonate prodrugs in vivo summary (pharmacokinetics). The conditions noted are these: species not given.
Turning to `CCOC(=O)[C@H](C)NP(=O)(CCN(C)C(=O)c1c2c(c(O)c3ncccc13)C(=O)N(Cc1ccc(F)cc1)C2)OCC(F)(F)F` (some centres unmarked) [Compound 2009], the “(head line blank)” value is 43.3 mL/min/kg, the F is 7% and the Vdβ was 3 L/kg.

For the molecule `CCOC(=O)[C@H](C)OP(=O)(CCNC(=O)c1c2c(c(O)c3ncccc13)C(=O)N(Cc1ccc(F)cc1)C2)Oc1ccccc1` (some centres unmarked) [Compound 2014], the “(head line blank)” value amounted to 16.7 mL/min/kg, the F was 0.04% and the Vdβ was 1.1 L/kg.

As to `CCOC(=O)[C@H](C)NP(=O)(CCN1CCN(C(=O)c2c3c(c(O)c4ncccc24)C(=O)N(Cc2ccc(F)cc2)C3)CC1)Oc1ccccc1` (some centres unmarked) [Compound 2015], the “(head line blank)” value was determined as 13 mL/min/kg and the Vdβ is on record as 0.8 L/kh.

In the case of `CCOC(=O)[C@H](C)NP(=O)(CCCNC(=O)c1c2c(c(O)c3ncccc13)C(=O)N(Cc1ccc(F)cc1)C2)Oc1ccccc1` (some centres unmarked) [Compound 2016], the “(head line blank)” value worked out at 6.7 mL/min/kg and the Vdβ worked out at 0.7 L/kh.

System in the next data set: not listed separately
The data set is described as follows: Caco-2 permeability. It counts as in vitro ADME. The conditions noted are these: human, Caco-2; read-out: Papp. A general note: Caco-2 cells form a polarised layer with tight junctions and transporters.
On to `CCOC(=O)[C@H](C)NP(=O)(CCN(C)C(=O)c1c2c(c(O)c3ncccc13)C(=O)N(Cc1ccc(F)cc1)C2)OCC(F)(F)F` (some centres unmarked) [Compound 2009], for which the apparent permeability (Papp) was 1 to 4 ×10⁻⁶ cm/s.

One may read the half-life as the time needed for the level to fall by half in the phase considered. A word on the pEC50: it is −log10 of the EC50, conventionally taken in molar units. Broadly, the pIC50 is the IC50 on a negative log10 scale, so that one unit is a factor of ten. The term Papp denotes the rate of passage across a membrane or cell layer, normalised by area and donor concentration.

The values above are taken from patent US20080076740A1, “Antiviral compounds” (GILEAD SCIENCES, INC., priority 2005, published 2008).
